Publication PMC12349723, “Computationally accelerated identification of P-glycoprotein inhibitors” (PLOS One, 2025)

Legend:
[1] = SWISS-ADME computational analysis of chemical properties; details: predicted aqueous solubility compared to that observed in the laboratory
Excerpt: Identifying P-gp inhibitors that are not transport substrates remains inherently challenging. To that end, computational tools such as the SWISS-ADME server attempt to use a molecule’s unique chemical and structural characteristics to predict whether it is likely to be a P-gp transport substrate. Our LC-MS/MS assays allowed us to retroactively test the validity of predictions from SWISS-ADME. […] Alternative identifiers for the molecules identified in this study are shown in S7 Table.
S1 Table. Known P-gp Inhibitors and Predicted Chemical Properties. A non-exhaustive list of known P-gp inhibitors and their selected chemical properties ^[64, 65]. Clinical trial outcomes were adapted from ^[10, 11]. Compounds were evaluated using the SWISS-ADME server ^[54]. […] “Predicted P-gp Substrate” - predicted by SWISS-ADME to be a transport substrate of P-gp. “Known P-gp Substrate” – In addition to being P-gp inhibitors, these molecules are: known transport substrates of P-gp, known non-transport substrates of P-gp, unknown whether it is a transport substrate of P-gp ^[66-68]. If the molecule is designated in a specific generation of P-gp inhibitors - First Generation P-gp inhibitors, Second generation P-gp inhibitors, Third generation P-gp inhibitors.

[2] = biological target: T1, P-gp (Homo sapiens, UniProt P08183); experiment: Top Hit classification from combined in vitro criteria; details: reverse MDR, do not increase PTX toxicity in chemo-sensitive cancer cells, non-toxic to noncancerous cells, not P-gp substrates
T1 construct: The MDR, P-gp overexpressing DU145-TXR cells were maintained under positive selection pressure; endogenous in cells; host or cells: DU145-TXR (paclitaxel-resistant sub-line of DU145 human prostate cancer cells)

[3] = Resazurin cell viability pre-screen in DU145-TXR cells with or without PTX; assay type: cell-based; details: human, mean of two experiments in triplicate, read-out: Viability, 15 µM compound alone
Experimental: Culture of the DU145, DU145-TXR, and HFL1 cell lines was performed as described in [8]. Culture of the A2780 and A2780-ADR cell lines was performed as described in [9]. MTT assays were performed as described in [8] with minor modifications. LC-MS/MS accumulation assays were performed as described in {Nanayakkara, 2018 #173} [9] with some modifications. […] The inhibitor concentration was lowered to 15 µM here, as the goal of the study was to identify compounds that were effective in reversing MDR at low concentrations, and to determine if the expanded virtual-assisted methods improved on our first-draft attempt. Compounds 56–98 were pre-screened using Resazurin cell viability assays: cells were incubated with 15 µM compound with or without 500 nM PTX for 48 hours, after which cell survival was assessed similar to [39]. Data represent the mean of two separate experiments, with n = 3 samples per experiment (n = 6 total) (S4 Table). The top performing compounds from this initial screen were re-tested with MTT viability assays against DU145-TXR cells, as described below.
S4 Table. Pre-screening of compounds 56 – 98 against DU145-TXR cells with resazurin assays. DU145-TXR cells were incubated with 15 µM compound with or without 500nM PTX for 48 hrs; survival was subsequently determined with the Resazurin viability assay ^[37]. […] Percent re-sensitization is defined as the percent change in viability between cells treated with compound and PTX, versus cells treated with PTX alone. In some instances, the assay reported an increase in viability with compound + PTX, and no percent sensitization is reported. ‘Follow-up Testing’ compounds were re-assessed with MTT assays (Figure 1). Compounds 59 and 89 (*, ‘Follow-up Testing’) were used as negative controls in follow-up MTT assays to test for consistency of results, e.g. to confirm that molecules eliminated in Resazurin assays were justifiably eliminated from later screening with MTT assays.

[4] = system: HFL1 (human lung fibroblast) cell line; experiment: MTT viability assay, inherent toxicity in non-cancerous HFL1 cells; assay type: cell-based; details: HFL1 cells, compound alone, mean of 8 samples
Experimental: The chemotherapeutic sensitive DU145 human prostate cancer cells and the multidrug resistant sub-line, DU145-TXR, were generous gifts from Dr. Evan Keller (University of Michigan, Ann Arbor, MI). The MDR, P-gp overexpressing DU145-TXR cells were maintained under positive selection pressure by supplementing complete medium with 10 nM paclitaxel (Acros Organics, NJ). […] The MDR, P-gp overexpressing A2780-ADR cell line was maintained under positive selection pressure by supplementing complete medium with 100 nM doxorubicin (Fisher Scientific, NJ). The non-cancerous HFL1 (human lung fibroblast) cell line cell line was a generous gift from Dr. Robert Harrod (Southern Methodist University, Dallas, TX) and was maintained in complete F12K media consisting of F12K with 10% fetal bovine serum, 100 U/mL penicillin, and 100 µg/mL streptomycin (Gibco). Flasks and 96 well plates that were used with the non-cancerous line HFL1 were pre-treated with 0.1 mg/ml Collagen Type 1 (Gibco) and rinsed with PBS (Fisher).
MTT assays measure the reduction of yellow, water soluble 3-(4,5-dimethylthiazol-2-yl)-2,5-diphenyltetrazolium bromide (MTT) to blue, insoluble formazan crystals by cellular reductase processes in living cells. Cells were trypsinized from monolayers and seeded in complete medium in 96 well plates. Cancerous cell lines (DU145, DU145-TXR, A2780, A2780-ADR) were seeded at 3,000 cells per well in complete RPMI medium. The non-cancerous HFL1 line was seeded at 4,000 cells per well in complete F12K medium, in collagen-treated plates (Collagen Type 1, Gibco). Cells were incubated with experimental compounds for 48 hours at 37 °C and 5% CO2 in a humidified incubator. At 48 hours, MTT was added (20 µL/well of 5 mg/mL MTT in PBS) to each well. After incubation for 4 hours, the media was removed, and the formazan crystals were dissolved in 100 µL DMSO per well. Plates containing the semi-adherent A2780 or A2780-ADR lines were spun at 1400 rpm for 3 minutes prior to aspiration of media, and the addition of DMSO. Plates were shaken for 10 minutes at 500 rpm on an Orbital shaker (LabDoctor from MidSci, St Louis, MO). The absorbance was measured at 570 nm using a Bio-Tek Cytation 5 (Bio-Tek, Winooski, VT). The measured absorbance value was correlated with the number of metabolically active cells in that well, corrected for absorbance of media. The percent of cell viability (termed ‘survival’ here) was calculated as a percentage of survival of the control condition, which refers to vehicle-treated (DMSO as vehicle) cells, or vehicle-and-chemotherapeutic-treated cells, if testing a compound’s ability to re-sensitize cells to a chemotherapeutic. Percent survival was calculated using the following equation:
% Survival=100 × absorbance of experimental cells/mean absorbance of control treated cells
For DU145-TXR, DU145, HFL1 and A2780 cells – data are the mean ± one standard deviation, 8 samples per compound, from at least two independent trials per compound. […] For A2780-ADR cells, data are the mean ± one standard deviation with 12 samples per compound, from at least two independent trials per compound.
If a P-gp inhibitor is intrinsically toxic to non-cancerous cells, it is more likely to be participating in undesirable off-target interactions. The top compounds from the screens shown above were screened for inherent toxicity using the non-cancerous HFL1 (human lung fibroblast) cell line. HFL1 cells were incubated with 15 µM compound for 48 hours, after which cell viability was assessed using MTT cell viability assays. A 20% reduction in cell viability (compared to DMSO-treated cells) was considered the maximum acceptable toxicity (see dotted line). The chemotherapeutic daunorubicin was included as a positive control for toxicity.
The top compounds from previous screens were tested against the non-cancerous HFL1 cell line.

[5] = biological target: T1, P-gp; experiment: LC-MS/MS intracellular accumulation assay with or without tariquidar (P-gp transport substrate test) in DU145-TXR cells; assay type: in vitro ADME
Experimental: DU145-TXR cells were seeded at 350,000 cells per well in 6-well plates in complete RPMI medium. […] A full sample of DAU was also prepared for quantitative analysis. […] Media was removed with a glass vacuum aspirator. Cells were re-suspended and washed in 2mL of ice-cold Hank’s Balanced Salt Solution (HBSS, Gibco), and spun again at 2400 rpm. Cell lysates were diluted in 600 µL of ice-cold HBSS, flash-frozen in liquid nitrogen, and stored at −80 °C until analysis. LC-MS/MS intracellular accumulation assays were performed in collaboration with the Pharmacology Core at the University of Texas Southwestern Medical Center (UTSW). […] This method allowed us to quantify the change – if any – in the relative amount of compound present in the samples when TQR was added. An increase in the relative amount of compound indicates enhanced intracellular retention that compound. […] The “Internal Standard” (IS) is a known substance added in a constant amount to each sample. The “Peak Area”, expressed as “counts”, describes the number of MS/MS spectra from the experimental compound and serves as a measure of its relative abundance. […] These values allow a comparison of the relative abundance of compound between the “- TQR” and “+ TQR” samples, and to test for statistically significant differences. LC-MS/MS quantification was performed as follows. Cell lysate was aliquoted into Eppendorf tubes. In contrast to [9], blank cell lysates were not spiked with varying concentrations of each compound to create a standard curve, since compound amounts were normalized to abundance of the internal standard. […] The supernatant was then transferred to an HPCL vial, and subsequently analyzed using LC-MS/MS using a Sciex 4000QTRAP mass spectrometer coupled to a Shimadzu Prominence LC. […] The column flow rate was 1.5 ml/min using an Agilent C18 XDB, 5 micron packing 50 × 4.6 mm column. […] A BSA standard curve was then prepared in water and mixed using the same ratio. […] The ratio of Analyte to Internal Standard was normalized to the lysate content for each individual sample. […] Statistical significance was determined using a Student’s T Test in GraphPad Prism. We aimed to identify P-gp inhibitors that are not transport substrates of the pump itself. […] To test these predictions in vitro, liquid chromatography with tandem mass spectrometry (LC-MS/MS) was used to assess the intracellular accumulation of experimental compounds as described in [9]. […] The relative intracellular accumulation of each experimental compound was then assessed using LC-MS/MS. […] The P-gp substrate and chemotherapeutic daunorubicin (DAU) was used as a positive control for P-gp-mediated transport.

[6] = system: DU145 cells; parameters: method as in PMID 26516582; details: ref [8]; cited from earlier work
[7] = system: DU145-TXR cells; details: cited from earlier work
[8] = system: P-gp; parameters: method as in earlier work; details: ref [66-68]; cited from earlier work
[9] = DU145-TXR, 5 µM compound, 2.5 h, with 500 nM tariquidar, mean ± SD, triplicate
[10] = DU145-TXR, 5 µM compound, 2.5 h, without tariquidar, mean ± SD, triplicate
[11] = significant difference = likely P-gp transport substrate

T1 sequence (P08183 whole entry): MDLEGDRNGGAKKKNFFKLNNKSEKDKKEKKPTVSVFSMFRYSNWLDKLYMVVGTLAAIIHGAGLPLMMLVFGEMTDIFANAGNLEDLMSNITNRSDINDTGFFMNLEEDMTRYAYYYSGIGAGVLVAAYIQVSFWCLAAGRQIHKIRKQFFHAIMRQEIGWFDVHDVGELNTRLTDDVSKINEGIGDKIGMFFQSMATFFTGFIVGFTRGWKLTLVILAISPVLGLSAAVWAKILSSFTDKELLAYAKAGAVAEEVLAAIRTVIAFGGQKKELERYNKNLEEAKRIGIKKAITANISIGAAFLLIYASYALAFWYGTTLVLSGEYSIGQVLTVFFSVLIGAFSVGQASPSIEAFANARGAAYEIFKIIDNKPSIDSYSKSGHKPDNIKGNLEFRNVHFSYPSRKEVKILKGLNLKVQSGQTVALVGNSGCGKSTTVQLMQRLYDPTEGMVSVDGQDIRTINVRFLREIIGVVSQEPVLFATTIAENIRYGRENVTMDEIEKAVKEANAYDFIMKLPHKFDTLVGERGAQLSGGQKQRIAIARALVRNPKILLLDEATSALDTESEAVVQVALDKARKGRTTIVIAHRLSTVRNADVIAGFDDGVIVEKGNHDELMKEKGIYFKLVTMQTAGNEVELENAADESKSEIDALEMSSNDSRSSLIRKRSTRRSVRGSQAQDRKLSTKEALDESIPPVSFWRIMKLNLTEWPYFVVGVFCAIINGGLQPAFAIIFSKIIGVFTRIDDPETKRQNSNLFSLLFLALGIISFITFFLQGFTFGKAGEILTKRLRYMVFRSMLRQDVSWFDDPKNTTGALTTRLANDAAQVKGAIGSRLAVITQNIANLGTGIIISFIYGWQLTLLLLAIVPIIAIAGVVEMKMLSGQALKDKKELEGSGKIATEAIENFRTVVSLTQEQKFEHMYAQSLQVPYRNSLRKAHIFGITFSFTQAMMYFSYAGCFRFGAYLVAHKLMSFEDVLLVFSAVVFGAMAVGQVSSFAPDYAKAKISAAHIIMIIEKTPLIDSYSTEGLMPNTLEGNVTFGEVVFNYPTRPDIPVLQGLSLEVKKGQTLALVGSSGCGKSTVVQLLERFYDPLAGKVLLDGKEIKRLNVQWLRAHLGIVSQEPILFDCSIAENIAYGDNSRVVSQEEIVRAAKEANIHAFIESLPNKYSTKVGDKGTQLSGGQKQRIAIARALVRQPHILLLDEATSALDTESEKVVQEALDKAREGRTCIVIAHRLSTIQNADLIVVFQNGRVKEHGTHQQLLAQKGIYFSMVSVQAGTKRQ

Structure (SMILES): Cc1cccc(C2CC(=O)c3cnn(-c4nc5ccccc5[nH]4)c3C2)c1 (stereo not shown) [Compound 79, Cc1cccc(c1)C1Cc2c(cnn2-c2nc3ccccc3[nH]2)C(=O)C1]
- Correct Water Solubility Prediction? [1]: Yes
- Top Hit [2]: No
- viability at 48 h, 15 µM [3]: 89.9%

Structure (SMILES): COc1cccc2c1C(=O)c1c(O)c3c(c(O)c1C2=O)C[C@@](O)(C(C)=O)C[C@@H]3O[C@H]1C[C@H](N)[C@H](O)[C@H](C)O1 [Daunorubicin, reference compound]
- Mean % Survival [4]: 18.1%
- Intracellular accumulation (normalized ratio of compound to internal standard), Trial 1, + TQR [5, 9]: 0.216 ± 0.002
- Intracellular accumulation (normalized ratio of compound to internal standard), Trial 2, + TQR [5, 9]: 0.232 ± 0.016
- Intracellular accumulation (normalized ratio of compound to internal standard), Trial 1, - TQR [5, 10]: 0.014 ± 0.001
- Intracellular accumulation (normalized ratio of compound to internal standard), Trial 2, - TQR [5, 10]: 0.017 ± 0.001
- P (- TQR vs + TQR), Trial 2 ([5]; Student's T test of the mean): 2x10^-5
- P (- TQR vs + TQR), Trial 1 ([5]; Student's T test of the mean, listed as DAU): < 1x10^-6
- Significance of accumulation with tariquidar, Trial 1 [5, 11]: **** (P < 0.0001 = ****)
- Significance of accumulation with tariquidar, Trial 2 [5, 11]: **** (P < 0.0001 = ****)

Structure (SMILES): CC(=O)O[C@H]1C(=O)[C@@]2(C)[C@H]([C@H](OC(=O)c3ccccc3)[C@]3(O)C[C@H](OC(=O)[C@H](O)[C@@H](NC(=O)c4ccccc4)c4ccccc4)C(C)=C1C3(C)C)[C@]1(OC(C)=O)CO[C@@H]1C[C@@H]2O [Paclitaxel, paclitaxel]
- Survival of DU145 parental cells at 500 nmol/L PTX [6]: less than 10%
- Survival of DU145-TXR cells at 500 nmol/L PTX ([7]; 500 nmol/L PTX, ref [8]): greater than 85%
- Increase in the IC50 of PTX in DU145-TXR relative to DU145 cells ([7]; DU145-TXR vs DU145 parental cells, ref [38]): 34 fold

Structure (SMILES): C=C[C@H]1C[N@@]2CC[C@H]1C[C@@H]2[C@@H](O)c1ccnc2ccc(OC)cc12 [Quinidine]
- P-gp Substrate? (known transport substrate of P-gp) [8]: Yes

Structure (SMILES): COC(=O)[C@H]1[C@H]2C[C@@H]3c4[nH]c5cc(OC)ccc5c4CCN3C[C@H]2C[C@@H](OC(=O)c2cc(OC)c(OC)c(OC)c2)[C@@H]1OC [Reserpine]
- P-gp Substrate? (known transport substrate of P-gp) [8]: No

Structure (SMILES): C/C=C/C[C@@H](C)C(=O)[C@H]1C(=O)N[C@@H](C(C)C)C(=O)N(C)CC(=O)N(C)[C@@H](CC(C)C)C(=O)N[C@@H](C(C)C)C(=O)N(C)[C@@H](CC(C)C)C(=O)N[C@@H](C)C(=O)N[C@H](C)C(=O)N(C)[C@@H](CC(C)C)C(=O)N(C)[C@@H](CC(C)C)C(=O)N(C)[C@@H](C(C)C)C(=O)N1C [Valspodar]
- P-gp Substrate? (known transport substrate of P-gp) [8]: No

Structure (SMILES): O[C@@H](COc1cccc2ncccc12)CN1CCN([C@@H]2c3ccccc3[C@@H]3[C@H](c4ccccc42)C3(F)F)CC1 [Zosuquidar]
- P-gp Substrate? (known transport substrate of P-gp) [8]: Yes
